Results reported in PMC5513091, “A novel Alzheimer’s disease drug candidate targeting inflammation and fatty acid metabolism” (Alzheimer's Research & Therapy, 2017).

Columns and labels:
Aβ plaque = tested on: Aβ plaque; parameters: method as in PMID 27149904; conditions: early study; cited from earlier work
Aβ1–42 = assay: Aβ enzyme-linked immunosorbent assay; assay type: in vivo, mice
Method: Hippocampal tissue samples were homogenized in 10 volumes of radioimmunoprecipitation assay (RIPA) lysis buffer (50 mM Tris, pH 7.5, 150 mM NaCl, 0.1% SDS, 0.5% deoxycholate, and 1% Nonidet P-40) containing a cocktail of protease and phosphatase inhibitors [[…] each of pepstatin A, aprotinin, phosphoramidon, and leupeptin; 0.5 mM 4-(2-aminoethyl)benzenesulfonyl fluoride hydrochloride; 1 mM ethylene glycol-bis(β-aminoethyl ether)-N,N,N′,N′-tetraacetic acid; 5 mM fenvalerate; and 5 mM cantharidin]. Samples were sonicated (2 × 10 seconds) and centrifuged first at 10,000 × g for 10 minutes and then at 100,000 × g for 60 minutes at 4 °C. The 100,000 × g pellet was taken up either in 6 M guanidine for Aβ analysis or in SDS sample buffer for Western blot analysis. Protein concentrations in the cell extracts were determined using a bicinchoninic acid protein assay (Pierce Biotechnology, Rockford, IL, USA). Equal amounts of protein were solubilized in 2.5× SDS sample buffer, separated on 12% SDS-polyacrylamide gels, transferred to Immobilon-P (EMD Millipore, Billerica, MA, USA), and immunoblotted with the antibodies indicated in the Materials subsection above. For Western blot experiments, protein levels were normalized to actin levels. An unpaired t test was performed to compare two groups at a single time point. When comparing multiple groups, one-way analysis of variance (ANOVA) followed by Tukey’s post hoc test was used. All statistical analysis was conducted using GraphPad InStat software.
Aβ1–42 levels in hippocampal lysate were analyzed using Aβ1–42 enzyme-linked immunosorbent assay kits from Invitrogen (catalogue number KHB3442). All kit reagents were brought to room temperature before use. […] A quantity of 50 μl of Aβ peptide standards and samples was added in duplicate to 96-well plates precoated with antibody to the NH2-terminal region of Aβ. […] Stop solution was then added at 100 μl to each well, followed by reading the absorbance of each well at 450 nm. […] The concentrations of the samples were calculated from the standard curve and multiplied by the dilution factor.

[1] = brain of CAD-31 treated hAPPswe/PS1ΔE9 mice (AD+31)

SMILES: Cc1ccc(N(/N=C/c2cccc(OC(F)(F)F)c2)C(=O)C(F)(F)F)c(C)c1 [CAD-31]
- Aβ plaque density or size (Aβ plaque): no effect on Aβ plaque density or size
- RIPA Insoluble Aβ1-42 (Aβ1–42; [1]): 4581 ± 489.3 pg/mg protein
- RIPA Soluble Aβ1-42 (Aβ1–42; [1]): 16.57 ± 3.359 pg/mg protein
- levels of soluble or insoluble Aβ1–42 (Aβ1–42; therapeutic paradigm, AD mice): did not reduce the levels of either soluble or insoluble Aβ1–42
